Measurements as given in ChEMBL document CHEMBL3792313, “Rational design, synthesis and 2D-QSAR study of novel vasorelaxant active benzofuran-pyridine hybrids” (Bioorg Med Chem Lett, 2016).
Structures can show the parent of a compound that is named as a salt.

Test system: Thoracic aorta
Assay: Vasodilative activity in isolated Wistar rat thoracic aorta assessed as inhibition of norepinephrine hydrochloride-induced contraction
Type: functional, tissue-based

| SMILES | IC50 |
| --- | --- |
| COc1nc(-c2cc3ccccc3o2)cc(-c2cccc3ccccc23)c1C#N | 359 µM |
| CCOc1nc(-c2cc3ccccc3o2)cc(-c2cc(OC)ccc2OC)c1C#N | 327 µM |
| CCOc1nc(-c2cc3ccccc3o2)cc(-c2ccc(C)o2)c1C#N | 417 µM |
| COc1nc(-c2cc3ccccc3o2)cc(-c2ccc3ccccc3c2)c1C#N | 320 µM |
| COc1ccc(-c2cc(-c3cc4ccccc4o3)nc(OC)c2C#N)c(OC)c1 | 425 µM |
| CCOc1nc(-c2cc3ccccc3o2)cc(-c2ccccc2)c1C#N | 310 µM |
| CCOc1nc(-c2cc3ccccc3o2)cc(-c2ccc(N(C)C)cc2)c1C#N | 338 µM |
| COc1nc(-c2cc3ccccc3o2)cc(-c2ccc(F)cc2)c1C#N | 321 µM |
| CCOc1nc(-c2cc3ccccc3o2)cc(-c2cc(OC)c(OC)c(OC)c2)c1C#N | 365 µM |
| COc1nc(-c2cc3ccccc3o2)cc(-c2ccc(Cl)cc2Cl)c1C#N | 322 µM |
| CCOc1nc(-c2cc3ccccc3o2)cc(-c2cccc3ccccc23)c1C#N | 344 µM |
| COc1cc(-c2cc(-c3cc4ccccc4o3)nc(OC)c2C#N)cc(OC)c1OC | 310 µM |
| CCOc1nc(-c2cc3ccccc3o2)cc(-c2cn(C)c3ccccc23)c1C#N | 327 µM |
| CCOc1nc(-c2cc3ccccc3o2)cc(-c2cn(CC)c3ccccc23)c1C#N | 358 µM |
| CCOc1nc(-c2cc3ccccc3o2)cc(-c2ccc(Cl)cc2Cl)c1C#N | 442 µM |
| CCOc1nc(-c2cc3ccccc3o2)cc(-c2ccc(OC)cc2OC)c1C#N | 488 µM |
| CCOc1nc(-c2cc3ccccc3o2)cc(-c2ccc3ccccc3c2)c1C#N | 423 µM |
| CCOc1nc(-c2cc3ccccc3o2)cc(-c2ccc(F)cc2)c1C#N | 396 µM |
| CCCCc1oc2ccccc2c1C(=O)c1cc(I)c(OCCN(CC)CC)c(I)c1 [AMIODARONE HYDROCHLORIDE] | 312 µM |

Further compounds by falling IC50, results first:

| IC50 | SMILES |
| --- | --- |
| 308 µM | CCOc1nc(-c2cc3ccccc3o2)cc(-c2cccs2)c1C#N |
| 299 µM | CCn1cc(-c2cc(-c3cc4ccccc4o3)nc(OC)c2C#N)c2ccccc21 |
| 298 µM | COc1nc(-c2cc3ccccc3o2)cc(-c2ccc(Br)cc2)c1C#N |
| 290 µM | CCOc1nc(-c2cc3ccccc3o2)cc(-c2ccc(C)cc2)c1C#N |
| 286 µM | COc1nc(-c2cc3ccccc3o2)cc(-c2ccc(Cl)cc2)c1C#N |
| 285 µM | COc1nc(-c2cc3ccccc3o2)cc(-c2ccc(C)o2)c1C#N |
| 278 µM | COc1nc(-c2cc3ccccc3o2)cc(-c2ccc(N(C)C)cc2)c1C#N |
| 266 µM | COc1nc(-c2cc3ccccc3o2)cc(-c2ccc(C)cc2)c1C#N |
| 262 µM | COc1nc(-c2cc3ccccc3o2)cc(-c2cn(C)c3ccccc23)c1C#N |
| 262 µM | COc1ccc(-c2cc(-c3cc4ccccc4o3)nc(OC)c2C#N)cc1 |
| 246 µM | COc1ccc(OC)c(-c2cc(-c3cc4ccccc4o3)nc(OC)c2C#N)c1 |
| 232 µM | COc1nc(-c2cc3ccccc3o2)cc(-c2ccccc2)c1C#N |
| 227 µM | CCOc1nc(-c2cc3ccccc3o2)cc(-c2ccc(Br)cc2)c1C#N |
| 221 µM | CCOc1nc(-c2cc3ccccc3o2)cc(-c2ccc(Cl)cc2)c1C#N |
| 204 µM | CCOc1nc(-c2cc3ccccc3o2)cc(-c2ccc(OC)cc2)c1C#N |
| 163 µM | COc1nc(-c2cc3ccccc3o2)cc(-c2cccs2)c1C#N |
